Test results taken from patent publication US20260207605A1, “KRAS G12D INHIBITORS AND USES THEREOF” (Abbisko Therapeutics Co., Ltd., priority 2022, published 2026).

Key:
KRAS^G12D/cRAF = KRAS^G12D/cRAF (Homo sapiens, UniProt P01116, G12D); experiment: KRAS G12D/cRAF binding test (Alphalisa); details: His-tagged KRAS G12D with GMPPNP, GST-tagged cRAF
Description: The compound was dissolved in 100% DMSO at a starting concentration of 5 mM and diluted in DMSO with a 3-fold serial dilution method for a total of 8 concentration points. 1 μL of the compound or DMSO at each concentration point was added into 99 μL of the experimental buffer to obtain 10× stock solution.
(§1) The ratio for each compound concentration was calculated from the signal of the DMSO control group contained in each assay plate and the Alphalisa signal in each compound well. The compound concentration required for inhibitory concentration at 50% (IC50) was determined using a four-parameter logarithmic dose-response equation by testing the concentration of the compound and the value of the ratio. The endpoint value (IC50) of the reference compound was assessed in each experiment as a quality control measure. If the endpoint value is within three times the expected value, the experiment may be considered acceptable.

AsPC-1 = experiment: Anti-proliferative 2D CTG assay, AsPC-1; type: cell-based; details: Homo sapiens, ASPC1, 96 h, AsPC-1 cells, 4 days incubation, read-out: AsPC-1 cell IC50
Description: (§2) 1.1 Day 0 Cell Culture and Plating
(§3) Cells in a logarithmic growth phase were harvested and the cells were counted by using a […]. Cell viability was tested by using a trypan blue exclusion method to ensure that cell viability was above 90%. The cell concentration was adjusted to the desired final density, and 90 μL of cell suspension was added to a 96-well plate, then the cells were incubated overnight at 37° C., 5% CO2 and 95% humidity.
(§4) 10 μL PBS was added to each well of the TO plate containing cells. The CTG reagent was thawed and the plate was equilibrated to room temperature for 30 minutes. The CTG solution of 50 µL/well was added to each well. The cells were lysed by shaking on an orbital shaker for 5 minutes. The plate was left at room temperature for 20 minutes to stabilize the luminescence signal. The TO fluorescence signal value was read.
(§5) From the 10 mM stock solution, with a ratio of 1:5, 9-point serial dilutions were performed. The 10× medium containing the compound was transferred into corresponding wells of the 96 wells. The final maximum compound concentration was […] and the final DMSO concentration was 0.1%. The 96-well plate was placed in a 37° C. incubator and incubated for 4 days.
(§6) 50 μL/well of detection reagent (CTG) was added to the cells, and the signal was read in an Envision machine.
as §1, with “The percent inhibition (%) at” for “The ratio for”, “signal in” for “signal of”, “the HPE and ZPE” for “the DMSO”, “control wells and the fluorescence signal in the individual compound wells included” for “control group contained”, “assay plate. […]” for “assay plate and the Alphalisa signal in each compound well.”, “the inhibition percentage value.” for “the value of the ratio.”

AGS = experiment: Anti-proliferative 2D CTG assay, AGS; type: cell-based; details: Homo sapiens, AGS, 96 h, AGS cells, 4 days incubation, read-out: AGS cell IC50
Description: as §2, §3, §4, §5, §6
as §1, with “The percent inhibition (%) at” for “The ratio for”, “signal in” for “signal of”, “the HPE and ZPE” for “the DMSO”, “control wells and the fluorescence signal in the individual compound wells included” for “control group contained”, “assay plate. […]” for “assay plate and the Alphalisa signal in each compound well.”, “the inhibition percentage value.” for “the value of the ratio.”

[1] = Pharmacokinetic experiment in mice (single PO or IV administration); details: male, ICR, mouse, plasma
Description: The purpose of this trial is to study the pharmacokinetic behavior of some compounds of the present invention, and the administration method is: single oral administration (PO) or intravenous administration (IV) to ICR mice.
ICR mice male N=9 original source: Shanghai Sippr-Bk Lab Animal Co., Ltd.
The compounds were weighed and dissolved in the corresponding solution (0.5% CMC+1% tween water solution or 10% PG+10% Solutol®+80% pH3 citrate buffer). The mixture was then shaken well and sonicated to prepare a 1 mg/mL stock solution. Nine mice were orally administered at a dose of 10 mg/kg or intravenously administered at a dose of 2 mg/kg after an overnight fast.
About 90 μL of blood was collected via the submandibular vein per time point, heparin sodium anticoagulant was added, the sample was placed on ice after collection, and plasma was centrifuged within 1 hour (centrifugation conditions: 8,000 rpm, 6 minutes, 2-8° C.). The blood collection timepoints were 0, 0.25, 0.5, 1, 2, 4, 6, 8 and 24 h. The samples were stored in a −20° C. refrigerator.
The plasma sample was 40 μL, 160 μL of ice-cold acetonitrile containing internal standard was added, vortexed for 3 minutes, and centrifuged at 11,000 rpm for 5 minutes. 100 μL of the supernatant was taken and added to 100 μL of water, 5 μL of the sample was taken and injected into LC/MS/MS for analysis.

Sequence of KRAS^G12D/cRAF (P01116 1-188 isoform P01116-2 G12D): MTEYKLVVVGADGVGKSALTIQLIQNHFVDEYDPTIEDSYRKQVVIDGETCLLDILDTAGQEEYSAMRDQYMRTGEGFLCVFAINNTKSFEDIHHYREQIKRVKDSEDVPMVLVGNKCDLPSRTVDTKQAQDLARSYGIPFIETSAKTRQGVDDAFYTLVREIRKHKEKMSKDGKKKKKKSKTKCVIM

C#Cc1c(F)ccc2cc(O)cc(-c3ncc4c(N5C[C@@H]6CC[C@](C7CC7)(C5)N6)nc(OCC56CC(=C)CN5CC(=C)C6)nc4c3F)c12 [Example 12, 4-(4-((1S,5S)-1-cyclopropyl-3,8-diazabicyclo[3.2.1]octan-3-yl)-2-((2,6-dimethylenetetrahydro-1H-pyrrolizin-7a(5H)-yl)methoxy)-8-fluoropyrido[4,3-d]pyrimidin-7-yl)-5-ethynyl-6-fluoronaphthalen-2-ol]
IC50 (KRAS^G12D/cRAF): 102 nM
IC50 (AsPC-1): 219 nM
IC50 (AGS): 104 nM

C#Cc1c(F)ccc2cc(O)cc(-c3ncc4c(N5C[C@H]6CC[C@@H](C5)N6)nc(OC[C@@]56CCCN5CC(=C)C6)nc4c3F)c12 [Reference Compound 3, 4-(4-((1R,5S)-3,8-diazabicyclo [3.2.1]octan-3-yl)-8-fluoro-2-(((S)-2-methylenetetrahydro-1H-pyrrolizin-7a(5H)-yl)methoxy)pyrido[4,3-d]pyrimidin-7-yl)-5-ethynyl-6-fluoronaphthalen-2-ol, reference compound]
AUC ([1]; po, 10 mg/kg): 27.1 ng·h/mL
Cmax ([1]; po, 10 mg/kg): 10.7 ng/mL
half-life ([1]; po, 10 mg/kg): 2.6 h

C#Cc1c(F)ccc2cc(O)cc(-c3ncc4c(N5C[C@@H]6CC[C@](CC)(C5)N6)nc(OC[C@@]56CCCN5C/C(=C/F)C6)nc4c3F)c12 [Example 80, 4-(4-((1R,5S)-1-ethyl-3,8-diazabicyclo[3.2.1]octan-3-yl)-8-fluoro-2-(((S,E)-2-(fluoromethylene)tetrahydro-1H-pyrrolizin-7a (5H)-yl)methoxy)pyrido[4,3-d]pyrimidin-7-yl)-5-ethynyl-6-fluoronaphthalen-2-ol]
IC50 (KRAS^G12D/cRAF): 6.2 nM
IC50 (AsPC-1): 39.6 nM
IC50 (AGS): 5.8 nM

[2H]C([2H])([2H])OC[C@@]12CC[C@@H](CN(c3nc(OC[C@@]45CCCN4C/C(=C/F)C5)nc4c(F)c(-c5cc(O)cc6ccc(F)c(C#C)c56)ncc34)C1)N2 [Example 84, 5-ethynyl-6-fluoro-4-(8-fluoro-2-(((S,E)-2-(fluoromethylene)tetrahydro-1H-pyrrolizin-7a (5H)-yl)methoxy)-4-((1R,5S)-1-((methoxy-d3)methyl)-3,8-diazabicyclo[3.2.1]octan-3-yl)pyrido[4,3-d]pyrimidin-7-yl) naphthalen-2-ol]
IC50 (KRAS^G12D/cRAF): 3.9 nM
IC50 (AsPC-1): 59.3 nM
IC50 (AGS): 11.4 nM

C#Cc1c(F)ccc2cc(O)cc(-c3ncc4c(N5C[C@H]6CC[C@@H](C5)N6)nc(OC[C@@]56CCCN5C/C(=C/F)C6)nc4c3F)c12 [Reference Compound 2, 4-(4-((1R,5S)-3,8-diazabicyclo [3.2.1]octan-3-yl)-8-fluoro-2-(((S,E)-2-(fluoromethylene)tetrahydro-1H-pyrrolizin-7a(5H)-yl)methoxy)pyrido[4,3-d]pyrimidin-7-yl)-5-ethynyl-6-fluoronaphthalen-2-ol, reference compound]
AUC ([1]; iv, 2 mg/kg): 718 ng·h/mL
Cmax ([1]; iv, 2 mg/kg): 1350 ng/mL
half-life ([1]; iv, 2 mg/kg): 14.1 h
AUC ([1]; po, 10 mg/kg): 43.2 ng·h/mL
Cmax ([1]; po, 10 mg/kg): 27.7 ng/mL
bioavailability ([1]; po, 10 mg/kg): 1.2%
half-life ([1]; po, 10 mg/kg): 2.3 h

[2H]C([2H])([2H])OCC12CCC(CN(c3nc(OCC45CC(=C)CN4CC(=C)C5)nc4c(F)c(-c5cc(O)cc6ccc(F)c(C#C)c56)ncc34)C1)N2 (stereo not drawn) [Example 1, 4-(2-((2,6-dimethylenetetrahydro-1H-pyrrolizin-7a(5H)-yl)methoxy)-8-fluoro-4-(1-((methoxy-d3)methyl)-3,8-diazabicyclo[3.2.1]octan-3-yl)pyrido[4,3-d]pyrimidin-7-yl)-5-ethynyl-6-fluoronaphthalen-2-ol]
IC50 (KRAS^G12D/cRAF): 37.4 nM
IC50 (AGS): 22.9 nM

[2H]C([2H])([2H])OCC12CCC(CN(c3nc(OCC45CC(=C)CN4CC(=C)C5)nc4c(F)c(-c5cc(O)cc6ccc(F)c(C#C)c56)nc(OC)c34)C1)N2 (single isomer, unassigned) [Example 173]
IC50 (AGS): 26.4 nM

[2H]C([2H])([2H])[C@@]12CC[C@@H](CN(c3nc(OC[C@@]45CCCN4C/C(=C\F)C5)nc4c(F)c(-c5cc(O)cc6ccc(F)c(C#C)c56)ncc34)C1)N2 [Example 53, 5-ethynyl-6-fluoro-4-(8-fluoro-2-(((S,Z)-2-(fluoromethylene)tetrahydro-1H-pyrrolizin-7a(5H)-yl)methoxy)-4-((1R,5S)-1-(methyl-d3)-3,8-diazabicyclo [3.2.1]octan-3-yl)pyrido[4,3-d]pyrimidin-7-yl)naphthalen-2-ol]
IC50 (KRAS^G12D/cRAF): 16.6 nM
IC50 (AGS): 1 nM

C#Cc1c(F)ccc2cc(O)cc(-c3ncc4c(N5CC6CCC(COC)(C5)N6)nc(OCC56CC(=C)CN5CC(=C)C6)nc4c3F)c12 (stereo not drawn) [Example 8, 4-(2-((2,6-dimethylenetetrahydro-1H-pyrrolizin-7a(5H)-yl)methoxy)-8-fluoro-4-(1-(methoxymethyl)-3,8-diazabicyclo[3.2.1]octan-3-yl)pyrido[4,3-d]pyrimidin-7-yl)-5-ethynyl-6-fluoronaphthalen-2-ol]
IC50 (AGS): 36.8 nM

C#Cc1c(F)ccc2cc(O)cc(-c3ncc4c(N5CC6CCC(C(C)(C)O)(C5)N6)nc(OCC56CC(=C)CN5CC(=C)C6)nc4c3F)c12 (stereo not drawn) [Example 2, 4-(2-((2,6-dimethylenetetrahydro-1H-pyrrolizin-7a(5H)-yl)methoxy)-8-fluoro-4-(1-(2-hydroxypropan-2-yl)-3,8-diazabicyclo[3.2.1]octan-3-yl)pyrido[4,3-d]pyrimidin-7-yl)-5-ethynyl-6-fluoronaphthalen-2-ol]
IC50 (KRAS^G12D/cRAF): 48.2 nM
IC50 (AGS): 251 nM

[2H]C([2H])([2H])Oc1nc(-c2cc(O)cc3ccc(F)c(C#C)c23)c(F)c2nc(OCC34CC(=C)CN3CC(=C)C4)nc(N3CC4CCC(CC)(C3)N4)c12 (stereo not drawn) [Example 201, 4-(2-((2,6-dimethylenetetrahydro-1H-pyrrolizin-7a(5H)-yl)methoxy)-4-(1-ethyl-3,8-diazabicyclo[3.2.1]octan-3-yl)-8-fluoro-5-(methoxy-d3)pyrido[4,3-d]pyrimidin-7-yl)-5-ethynyl-6-fluoronaphthalen-2-ol]
IC50 (AGS): 21.6 nM

C#Cc1c(F)ccc2cc(O)cc(-c3ncc4c(N5C[C@H]6CC[C@@H](C5)N6)nc(OC[C@@]56CCCN5C/C(=C\F)C6)nc4c3F)c12 [Reference Compound 1, 4-(4-((1R,5S)-3,8-diazabicyclo [3.2.1]octan-3-yl)-8-fluoro-2-(((S,Z)-2-(fluoromethylene)tetrahydro-1H-pyrrolizin-7a(5H)-yl)methoxy)pyrido[4,3-d]pyrimidin-7-yl)-5-ethynyl-6-fluoronaphthalen-2-ol, reference compound]
AUC ([1]; iv, 2 mg/kg): 688 ng·h/mL
Cmax ([1]; iv, 2 mg/kg): 1690 ng/mL
half-life ([1]; iv, 2 mg/kg): 10.5 h
AUC ([1]; po, 10 mg/kg): 82.6 ng·h/mL
Cmax ([1]; po, 10 mg/kg): 33.2 ng/mL
bioavailability ([1]; po, 10 mg/kg): 2.4%
half-life ([1]; po, 10 mg/kg): 2.6 h

[2H]C([2H])([2H])Oc1nc(-c2cc(O)cc3ccc(F)c(C#C)c23)c(F)c2nc(OC[C@@]34CCCN3C/C(=C\F)C4)nc(N3CC4CCC(CC)(C3)N4)c12 (stereo partly drawn) [Example 204, 4-(4-(1-ethyl-3,8-diazabicyclo [3.2.1]octan-3-yl)-8-fluoro-2-(((S,Z)-2-(fluoromethylene)tetrahydro-1H-pyrrolizin-7a(5H)-yl)methoxy)-5-(methoxy-d3)pyrido [4,3-d]pyrimidin-7-yl)-5-ethynyl-6-fluoronaphthalen-2-ol]
IC50 (KRAS^G12D/cRAF): 3.9 nM
IC50 (AGS): 5.1 nM

C#Cc1c(F)ccc2cc(O)cc(-c3ncc4c(N5C[C@@H]6CC[C@](COC)(C5)N6)nc(OC[C@@]56CCCN5C/C(=C/F)C6)nc4c3F)c12 [Example 82, 5-ethynyl-6-fluoro-4-(8-fluoro-2-(((S,E)-2-(fluoromethylene)tetrahydro-1H-pyrrolizin-7a (5H)-yl)methoxy)-4-((1R,5S)-1-(methoxymethyl)-3,8-diazabicyclo [3.2.1]octan-3-yl)pyrido[4,3-d]pyrimidin-7-yl)naphthalen-2-ol]
IC50 (KRAS^G12D/cRAF): 8.1 nM

[2H]C([2H])([2H])C([2H])([2H])[C@@]12CC[C@@H](CN(c3nc(OC[C@@]45CCCN4C/C(=C\F)C5)nc4c(F)c(-c5ccc(F)c6sc(N)c(C#N)c56)c(Cl)cc34)C1)N2 [Example 360, 2-amino-4-(6-chloro-4-((1R,5S)-1-(ethyl-d5)-3,8-diazabicyclo [3.2.1]octan-3-yl)-8-fluoro-2-(((S,Z)-2-(fluoromethylene)tetra-hydro-1H-pyrrolizin-7a(5H)-yl)methoxy)quinazolin-7-yl)-7-fluoro-benzo[b]thiophene-3-carbonitrile]
IC50 (KRAS^G12D/cRAF): 20.2 nM
